In patent EP1561465A2, “Methods of use of fluoroquinolone compounds against bacteria” (LG Life Sciences, Ltd., priority 1999, dated 2001):
≈ marks a conversion by molar mass, not a printed value. Where two headings read alike, the source gives them in different places.

Key:
[1] = test system: Mycobacterium tuberculosis (MTB); test: MIC by proportions method (NCCLS M24-T, 1995), 82 MTB strains; type: cell-based; details: Mycobacterium tuberculosis; 82 MTB strains
[2] = test system: Staphylococcus aureus; test: MIC by agar dilution (NCCLS), 411 isolates Buenos Aires 1998-99; type: cell-based; details: for MIC90: Staphylococcus aureus
[3] = test system: Streptococcus pneumoniae; test: as above; type: cell-based; details: for MIC / MIC90: Streptococcus pneumoniae; for MIC: Ciprofloxacin-resistant S. pneumoniae, read-out: MIC; for MIC90: read-out: MIC90
[4] = test system: Streptococcus pneumoniae; test: MIC by two-fold serial agar dilution, Sensitivity Disk agar-N (Kitasato isolates); type: cell-based; details: Streptococcus pneumoniae; for MIC90: read-out: MIC90; for MIC: read-out: MIC Range; for MIC50: read-out: MIC50
[5] = test system: Staphylococcus aureus; test: MIC by NCCLS broth microdilution, 1100 Japanese clinical isolates 1997-1998; type: cell-based; details: for MIC: Staphylococcus aureus quinolone resistant, read-out: MIC
[6] = test system: Campylobacter jejuni; test: MIC by agar dilution (NCCLS M7-A4), 288 enteropathogenic isolates, gemifloxacin and 15 other antimicrobials; details: for MIC: Campylobacter jejuni
[7] = test system: Streptococcus pneumoniae; test: MIC by NCCLS reference broth microdilution, 450 respiratory tract pathogens; type: cell-based; details: Streptococcus pneumoniae
[8] = test system: E. coli; test: microbe, parasite or virus in culture; type: cell-based; details: Escherichia coli
[9] = test system: Campylobacter jejuni; test: MIC by agar dilution (NCCLS M7-A4), 5% sheep blood, microaerophilic 48 h; type: cell-based; details: Campylobacter jejuni (n=91)
[10] = test system: Proteus mirabilis; test: MIC by NCCLS broth microdilution, 1100 Japanese clinical isolates 1997-1998; type: cell-based
[11] = test system: Serratia marcescens; test: as above; type: cell-based
[12] = test system: Klebsiella pneumoniae; test: as above; type: cell-based
[13] = test system: Enterobacter aerogenes; test: as above; type: cell-based; details: Enterobacter aerogenes (n=35)
[14] = test system: Enterococcus faecalis; test: as above; type: cell-based; details: for MIC50 / MIC90: Enterococcus faecalis; for MIC90: read-out: MIC90
[15] = test system: Hafnia alvei; test: MIC by agar dilution (NCCLS M7-A4), 288 enteropathogenic isolates, eight quinolones; type: cell-based; details: Hafnia alvei (n = 32)
[16] = test system: Streptococcus pneumoniae; test: MIC by broth microdilution (NCCLS), dried MicroScan panels, clinical isolates 1998-1999; type: cell-based; details: for MIC90: Streptococcus pneumoniae
[17] = test system: Yersinia enterocolitica; test: MIC by agar dilution (NCCLS M7-A4), 288 enteropathogenic isolates, eight quinolones; type: cell-based; details: Yersinia enterocolitica (n = 22)
[18] = S. aureus, Methicillin resistant (n = 14)
[19] = S. aureus, Methicillin susceptible (n = 66)
[20] = Streptococcus pneumoniae (n = 90)
[21] = Staphylococcus aureus, Staphylococcus aureus oxacillin resistant (n=57)
[22] = Streptococcus pneumoniae (n = 100)
[23] = erythromycin resistant M phenotype (n = 16)
[24] = erythromycin resistant MLSB phenotype (n = 16)
[25] = penicillin intermediate (n = 16)
[26] = penicillin susceptible (n = 20)
[27] = Enterococcus faecalis ciprofloxacin resistant (n=15)
[28] = Enterococcus faecalis ciprofloxacin susceptible (n=24)
[29] = Streptococcus pneumoniae (302 isolates)

Compound: C[C@H]1COc2c(N3CCN(C)CC3)c(F)cc3c(=O)c(C(=O)O)cn1c23 [Levofloxacin, levofloxacin]
- MIC90 [1]: 1 µg/mL (≈ 2.77 µM)
- Resistance (%) [2, 18]: 100%
- Resistance (%) [2, 19]: 0%
- MIC Range ([2]; Staphylococcus aureus (n = 80)): 0.06 to 8 µg/mL
- MIC90 [2, 18]: 8 µg/mL (≈ 22.1 µM)
- MIC90 [2, 19]: 0.25 µg/mL (≈ 0.692 µM)
- MIC90 ([2]; Staphylococcus aureus (n = 80)): 4 µg/mL (≈ 11.1 µM)
- MIC Range [3, 20]: 0.25 to 4 µg/mL
- MIC ([3]; Strain 1): 1 µg/mL (≈ 2.77 µM)
- MIC ([3]; Strain 2): 1 µg/mL (≈ 2.77 µM)
- MIC ([3]; Strain 3): 4 µg/mL (≈ 11.1 µM)
- MIC ([3]; Strain 4): 2 µg/mL (≈ 5.53 µM)
- MIC90 ([3]; S. pneumoniae, Penicillin intermediate (n = 17)): 1 µg/mL (≈ 2.77 µM)
- MIC90 ([3]; S. pneumoniae, Penicillin resistant (n = 4)): 1 µg/mL (≈ 2.77 µM)
- MIC90 ([3]; S. pneumoniae, Penicillin susceptible (n = 69)): 1 µg/mL (≈ 2.77 µM)
- MIC90 [3, 20]: 1 µg/mL (≈ 2.77 µM)
- MIC90 ([4]; 18 h, Ciprofloxacin-resistant (21), ciprofloxacin MIC ≥8 µg/ml): 16 µg/mL (≈ 44.3 µM)
- MIC ([4]; 18 h, Ciprofloxacin-resistant (21)): 2 to 32 µg/mL (≈ 5.53 to 88.6 µM)
- MIC ([4]; 18 h, Ciprofloxacin-susceptible (94)): 0.25 to 2 µg/mL (≈ 0.692 to 5.53 µM)
- MIC ([4]; 18 h, Erythromycin-resistant (37)): 0.5 to 16 µg/mL (≈ 1.38 to 44.3 µM)
- MIC ([4]; 18 h, Minocycline-resistant (37)): 0.25 to 16 µg/mL (≈ 0.692 to 44.3 µM)
- MIC ([4]; 18 h, Penicillin-resistant (19)): 0.5 to 8 µg/mL (≈ 1.38 to 22.1 µM)
- MIC50 ([4]; Ciprofloxacin-resistant (21)): 16 µg/mL (≈ 44.3 µM)
- MIC50 ([4]; Ciprofloxacin-susceptible (94)): 0.5 µg/mL (≈ 1.38 µM)
- MIC90 ([4]; Ciprofloxacin-susceptible (94)): 1 µg/mL (≈ 2.77 µM)
- MIC50 ([4]; Erythromycin-resistant (37)): 1 µg/mL (≈ 2.77 µM)
- MIC90 ([4]; Erythromycin-resistant (37)): 2 µg/mL (≈ 5.53 µM)
- MIC50 ([4]; Minocycline-resistant (37)): 1 µg/mL (≈ 2.77 µM)
- MIC90 ([4]; Minocycline-resistant (37)): 2 µg/mL (≈ 5.53 µM)
- MIC50 ([4]; Penicillin-resistant (19)): 0.5 µg/mL (≈ 1.38 µM)
- MIC90 ([4]; Penicillin-resistant (19)): 1 µg/mL (≈ 2.77 µM)
- MIC Range ([5]; Staphylococcus aureus oxacillin susceptible (n=41)): 0.125 to 1 µg/mL
- MIC50 [5, 21]: 4 µg/mL (≈ 11.1 µM)
- MIC90 [5, 21]: 64 µg/mL (≈ 177 µM)
- MIC50 ([5]; Staphylococcus aureus, Staphylococcus aureus oxacillin susceptible (n=41)): 0.25 µg/mL (≈ 0.692 µM)
- MIC ([5]; Staphylococcus aureus, strain TMS3): > 128 µg/mL
- MIC ([5]; Staphylococcus aureus, strain TMS4): 16 µg/mL (≈ 44.3 µM)
- MIC ([5]; Staphylococcus aureus, strain TMS5): 4 µg/mL (≈ 11.1 µM)
- MIC ([5]; Staphylococcus aureus, strain TMS6): 2 µg/mL (≈ 5.53 µM)
- MIC (mg/L) Range ([6]; Campylobacter jejuni N= 91): 0.06 to 128 mg/L
- MIC ([6]; read-out: MIC (mg/L) 50%): 8 mg/L (≈ 22.1 µM)
- MIC ([6]; read-out: MIC (mg/L) 90%): 32 mg/L (≈ 88.6 µM)
- MIC [7, 22]: 0.25 to 2 µg/mL (≈ 0.692 to 5.53 µM)
- MIC50 [7, 22]: 1 µg/mL (≈ 2.77 µM)
- MIC90 [7, 22]: 1 µg/mL (≈ 2.77 µM)
- MIC [7, 23]: 1 to 2 µg/mL (≈ 2.77 to 5.53 µM)
- MIC50 [7, 23]: 1 µg/mL (≈ 2.77 µM)
- MIC90 [7, 23]: 1 µg/mL (≈ 2.77 µM)
- MIC [7, 24]: 0.5 to 2 µg/mL (≈ 1.38 to 5.53 µM)
- MIC50 [7, 24]: 1 µg/mL (≈ 2.77 µM)
- MIC90 [7, 24]: 1 µg/mL (≈ 2.77 µM)
- MIC ([7]; multi-drug resistant (n = 16)): 0.5 to 1 µg/mL (≈ 1.38 to 2.77 µM)
- MIC50 ([7]; multi-drug resistant (n = 16)): 1 µg/mL (≈ 2.77 µM)
- MIC90 ([7]; multi-drug resistant (n = 16)): 1 µg/mL (≈ 2.77 µM)
- MIC [7, 25]: 0.5 to 1 µg/mL (≈ 1.38 to 2.77 µM)
- MIC50 [7, 25]: 1 µg/mL (≈ 2.77 µM)
- MIC90 [7, 25]: 1 µg/mL (≈ 2.77 µM)
- MIC ([7]; penicillin resistant (n = 18)): 0.5 to 2 µg/mL (≈ 1.38 to 5.53 µM)
- MIC50 ([7]; penicillin resistant (n = 18)): 0.5 µg/mL (≈ 1.38 µM)
- MIC90 ([7]; penicillin resistant (n = 18)): 1 µg/mL (≈ 2.77 µM)
- MIC [7, 26]: 0.25 to 1 µg/mL (≈ 0.692 to 2.77 µM)
- MIC50 [7, 26]: 1 µg/mL (≈ 2.77 µM)
- MIC90 [7, 26]: 1 µg/mL (≈ 2.77 µM)
- MIC50 ([8]; E. coli (13 strains), quinolone-resistant, read-out: MIC50): 0.125 µg/mL (≈ 0.346 µM)
- MIC90 ([8]; E. coli (13 strains), quinolone-resistant, read-out: MIC90): 1 µg/mL (≈ 2.77 µM)
- MIC ([8]; E. coli KU1029, mutant type SP (spontaneous mutant in the DNA gyrase)): 0.063 µg/mL (≈ 0.174 µM)
- MIC ([8]; E. coli KU1030, mutant type SP): 0.125 µg/mL (≈ 0.346 µM)
- MIC ([8]; E. coli KU1031, mutant type SP): 0.063 µg/mL (≈ 0.174 µM)
- MIC ([8]; E. coli KU1032, mutant type SP): 0.25 µg/mL (≈ 0.692 µM)
- MIC ([8]; E. coli KU1033, mutant type SP): 0.063 µg/mL (≈ 0.174 µM)
- MIC ([8]; E. coli KU1034, mutant type GA (DNA gyrase A)): 1 µg/mL (≈ 2.77 µM)
- MIC ([8]; E. coli KU1035, mutant type GA (DNA gyrase A)): 1 µg/mL (≈ 2.77 µM)
- MIC ([8]; E. coli KU1036, mutant type GB (DNA gyrase B)): 0.125 µg/mL (≈ 0.346 µM)
- MIC ([8]; E. coli KU1038, mutant type SP): 0.125 µg/mL (≈ 0.346 µM)
- MIC ([8]; E. coli KU1039, mutant type SP): 0.25 µg/mL (≈ 0.692 µM)
- MIC ([8]; E. coli KU1040, mutant type SP): 0.031 µg/mL (≈ 0.0858 µM)
- MIC ([8]; E. coli KU1041, mutant type SP): 0.5 µg/mL (≈ 1.38 µM)
- MIC ([8]; E. coli KU1042, mutant type SP): 0.063 µg/mL (≈ 0.174 µM)
- % Susceptible [9]: 31.86%
- MIC50 [9]: 8 µg/mL (≈ 22.1 µM)
- MIC90 [9]: 32 µg/mL (≈ 88.6 µM)
- MIC Range [9]: 0.06 to 128 µg/mL
- MIC90 ([10]; Proteus mirabilis): 0.125 µg/mL (≈ 0.346 µM)
- MIC Range ([10]; Proteus mirabilis (n=30)): 0.032 to 2 µg/mL
- MIC50 ([10]; Proteus mirabilis (n=30), read-out: MIC50): 0.063 µg/mL (≈ 0.174 µM)
- MIC50 ([11]; Serratia marcescens): 0.125 µg/mL (≈ 0.346 µM)
- MIC90 ([11]; Serratia marcescens (n=30)): 0.5 µg/mL (≈ 1.38 µM)
- MIC Range ([11]; Serratia marcescens (n=30)): 0.063 to 32 µg/mL
- MIC90 ([12]; Klebsiella pneumoniae): 0.125 µg/mL (≈ 0.346 µM)
- MIC50 ([12]; Klebsiella pneumoniae (n=35)): 0.032 µg/mL (≈ 0.0886 µM)
- MIC Range ([12]; Klebsiella pneumoniae (n=35)): 0.016 to 4 µg/mL
- MIC Range [13]: 0.016 to 0.25 µg/mL
- MIC50 ([13]; Klebsiella aerogenes): 0.032 µg/mL (≈ 0.0886 µM)
- MIC90 ([13]; Klebsiella aerogenes): 0.063 µg/mL (≈ 0.174 µM)
- MIC Range [14, 27]: 2 to 32 µg/mL
- MIC Range [14, 28]: 1 to 2 µg/mL
- MIC50 [14, 27]: 16 µg/mL (≈ 44.3 µM)
- MIC90 [14, 27]: 32 µg/mL (≈ 88.6 µM)
- MIC50 [14, 28]: 1 µg/mL (≈ 2.77 µM)
- MIC90 [14, 28]: 2 µg/mL (≈ 5.53 µM)
- % Susceptible [15]: 100%
- MIC50 [15]: 0.03 µg/mL (≈ 0.083 µM)
- MIC90 [15]: 0.03 µg/mL (≈ 0.083 µM)
- MIC Range [15]: ≤0.015 to 0.03 µg/mL
- MIC50 [16, 29]: 1 µg/mL (≈ 2.77 µM)
- MIC Range [16, 29]: ≤0.015 to 2 µg/mL
- MIC90 ([16]; Erythromycin-resistant (86)): 1 µg/mL (≈ 2.77 µM)
- MIC90 ([16]; Erythromycin-sensitive (216)): 2 µg/mL (≈ 5.53 µM)
- MIC90 ([16]; Penicillin-intermediate (124)): 1 µg/mL (≈ 2.77 µM)
- MIC90 ([16]; Penicillin-resistant (80)): 1 µg/mL (≈ 2.77 µM)
- MIC90 ([16]; Penicillin-sensitive (98)): 1 µg/mL (≈ 2.77 µM)
- MIC90 [16, 29]: 1 µg/mL (≈ 2.77 µM)
- % Susceptible [17]: 100%
- MIC50 [17]: 0.06 µg/mL (≈ 0.166 µM)
- MIC90 [17]: 0.06 µg/mL (≈ 0.166 µM)
- MIC Range [17]: 0.03 to 0.5 µg/mL
